Data published in US11186605B2 (KYOWA HAKKO BIO CO., LTD., priority 2016, dated 2021).
Where two headings read alike, the source gives them in different places.

What was measured:
[1] = crystal powder, mean of three sites
Text: Here, the “angle of repose” refers to an angle formed by a horizontal plane and a generating line of a cone formed with a powder when the powder is allowed to gently fall onto the horizontal plane through a kind of a funnel.
The angle of repose can be measured using Multi Tester MT-1001T (manufactured by Seishin Enterprise Co., Ltd.) according to the accompanying manual under the following conditions.
[Measurement Conditions for Angle of Repose]
(§1) Apparatus for use: multi-tester MT-1001T type (manufactured by Seishin Enterprise Co., Ltd.)
(§2) Vibration range: 0.7 mm to 0.8 mm
Specific example of method of measuring angle of repose: The crystal is piled on an repose angle table (component number: MT-1028) while dropped via a 1.18 mm sieve vibrated at a range of 0.7 mm to 0.8 mm. The repose angle table is rotated without giving vibration, angles are read at three sites, and an arithmetic mean thereof is determined to be the angle of repose.

[2] = crystal powder, after three impacts, mean of three sites
Text: Here, the “angle of rupture” refers to an angle formed by a horizontal plane and a generating line of a cone which is formed when a certain impact is applied indirectly to a cone formed with a powder when the powder is allowed to gently fall onto the horizontal plane through a kind of a funnel.
The angle of rupture can be measured using Multi Tester MT-1001T (manufactured by Seishin Enterprise Co., Ltd.) according to the accompanying manual by the following method.
A weight attached to the bottom of a repose angle table unit (component number: MT-1028) is slowly lifted under a tapping table and allowed to fall after the measurement of the angle of repose. This operation is repeated three times. In the same manner as the method of measuring the angle of repose, angles are read at three sites, and the arithmetic mean thereof is determined to be the angle of rupture.

[3] = crystal powder, 1.18 mm sieve, 100 mL container, average of three
Method: Here, the “loose specific volume” refers to a value which is obtained by dividing a volume occupied by a powder by a mass when the powder is filled in a container and the mass of the powder is measured.
The loose specific volume can be measured using Multi Tester MT-1001T (manufactured by Seishin Enterprise Co., Ltd.) according to the accompanying manual under the following conditions based on the 17th revision, Pharmacopoeia of Japan.
[Measurement Conditions for Loose Specific Volume]
as §1, §2
Specific example of method of measuring loose specific volume: A 100 mL cylindrical container made of stainless steel is filled while the crystal is dropped via a 1.18 mm sieve vibrated at a range of 0.7 mm to 0.8 mm. Excess powder is carefully rubbed off from the top surface of the container, and the mass of the powder is measured by subtracting the mass of an empty measurement container measured in advance. The measurement is independently performed three times to determine an average value.

[4] = crystal powder, 400 taps at 1 tap/sec, 100 mL container, average of three
Method: Here, the “dense specific volume” refers to a value which is obtained by dividing a volume occupied by a powder by a mass when the powder is filled in a container, a certain impact is applied to the container, and then the mass of the powder is measured.
The dense specific volume can be measured, for example, using Multi Tester MT-1001T (manufactured by Seishin Enterprise Co., Ltd.) according to the accompanying manual under the following conditions based on the 17th revision, Pharmacopoeia of Japan.
[Measurement Conditions for Dense Specific Volume]
as §1, §2
Specific example of method of measuring dense specific volume: A 100 mL cylindrical container made of stainless steel equipped with an auxiliary cylinder is filled while the crystal is dropped via a 1.18 mm sieve vibrated at a range of 0.7 mm to 0.8 mm. […] The measurement is independently performed three times to determine an average value.

Substance: cytidine diphosphate choline [Comparative Example 1]
- Angle of repose [1]: 49.6 degree
- Angle of rupture [2]: 40.1 degree
- Loose specific volume [3]: 2.33 mg/L
- Dense specific volume [4]: 1.49 mg/L

Substance: cytidine diphosphate choline [Example 4]
- Angle of repose [1]: 43.4 degree
- Angle of rupture [2]: 41.6 degree
- Loose specific volume [3]: 2.00 mg/L
- Dense specific volume [4]: 1.55 mg/L

Substance: cytidine diphosphate choline [Example 3]
- Angle of repose [1]: 52.8 degree
- Angle of rupture [2]: 47.1 degree
- Loose specific volume [3]: 3.58 mg/L
- Dense specific volume [4]: 2.19 mg/L

Substance: cytidine diphosphate choline [Comparative Example 4]
- Angle of repose [1]: 48.7 degree
- Angle of rupture [2]: 46.4 degree
- Loose specific volume [3]: 5.74 mg/L
- Dense specific volume [4]: 2.93 mg/L

Substance: cytidine diphosphate choline [Example 1]
- Angle of repose [1]: 46.9 degree
- Angle of rupture [2]: 39.6 degree
- Loose specific volume [3]: 3.42 mg/L
- Dense specific volume [4]: 2.13 mg/L

Substance: cytidine diphosphate choline [Comparative Example 3]
- Angle of repose [1]: 57.4 degree
- Angle of rupture [2]: 50.8 degree
- Loose specific volume [3]: 4.19 mg/L
- Dense specific volume [4]: 2.19 mg/L

Substance: cytidine diphosphate choline [Product of company A]
- Angle of repose [1]: 56.6 degree
- Angle of rupture [2]: 48.7 degree
- Loose specific volume [3]: 2.81 mg/L
- Dense specific volume [4]: 1.67 mg/L

Substance: cytidine diphosphate choline
- concentration of the cytidine diphosphate choline in filtrate (solubility) (ethanol concentration 50% by volume, 30° C.): 282000 µg/mL
- concentration of the cytidine diphosphate choline in filtrate (solubility) (ethanol concentration 50% by volume, 35° C.): 286000 µg/mL
- concentration of the cytidine diphosphate choline in filtrate (solubility) (ethanol concentration 50% by volume, 40° C.): 317000 µg/mL
- concentration of the cytidine diphosphate choline in filtrate (solubility) (ethanol concentration 66% by volume, 30° C.): 27600 µg/mL
- concentration of the cytidine diphosphate choline in filtrate (solubility) (ethanol concentration 66% by volume, 35° C.): 31600 µg/mL
- concentration of the cytidine diphosphate choline in filtrate (solubility) (ethanol concentration 66% by volume, 40° C.): 54200 µg/mL
- concentration of the cytidine diphosphate choline in filtrate (solubility) (ethanol concentration 71% by volume, 30° C.): 8490 µg/mL
- concentration of the cytidine diphosphate choline in filtrate (solubility) (ethanol concentration 71% by volume, 35° C.): 9700 µg/mL
- concentration of the cytidine diphosphate choline in filtrate (solubility) (ethanol concentration 71% by volume, 40° C.): 11100 µg/mL
- concentration of the cytidine diphosphate choline in filtrate (solubility) (ethanol concentration 75% by volume, 30° C.): 3230 µg/mL
- concentration of the cytidine diphosphate choline in filtrate (solubility) (ethanol concentration 75% by volume, 35° C.): 3650 µg/mL
- concentration of the cytidine diphosphate choline in filtrate (solubility) (ethanol concentration 75% by volume, 40° C.): 4040 µg/mL
- concentration of the cytidine diphosphate choline in filtrate (solubility) (ethanol concentration 78% by volume, 30° C.): 1400 µg/mL
- concentration of the cytidine diphosphate choline in filtrate (solubility) (ethanol concentration 78% by volume, 35° C.): 1680 µg/mL
- concentration of the cytidine diphosphate choline in filtrate (solubility) (ethanol concentration 78% by volume, 40° C.): 1690 µg/mL
- concentration of the cytidine diphosphate choline in filtrate (solubility) (ethanol concentration 80% by volume, 30° C.): 760 µg/mL
- concentration of the cytidine diphosphate choline in filtrate (solubility) (ethanol concentration 80% by volume, 35° C.): 840 µg/mL
- concentration of the cytidine diphosphate choline in filtrate (solubility) (ethanol concentration 80% by volume, 40° C.): 920 µg/mL

Substance: cytidine diphosphate choline [Example 2]
- Angle of repose [1]: 47.2 degree
- Angle of rupture [2]: 38.7 degree
- Loose specific volume [3]: 2.55 mg/L
- Dense specific volume [4]: 1.82 mg/L
